This note sets out measurements from patent US4320057A, “Aryl--pyrrolo--thiazepin--diones and aryl--piperidino--thiazepin--diones” (American Home Products Corporation, priority 1981, dated 1982).

The assay concerns the target T1, angiotensin converting enzyme (Oryctolagus cuniculus, UniProt P12822).
T1 construct: A crude angiotensin converting enzyme supernatant is obtained by blending 1 gm. of rabbit lung acetone powder; tissue PelFreez Biologicals; host or cells: rabbit lung acetone powder, crude 40,000 xg supernatant
T1 sequence (P12822 34-1310): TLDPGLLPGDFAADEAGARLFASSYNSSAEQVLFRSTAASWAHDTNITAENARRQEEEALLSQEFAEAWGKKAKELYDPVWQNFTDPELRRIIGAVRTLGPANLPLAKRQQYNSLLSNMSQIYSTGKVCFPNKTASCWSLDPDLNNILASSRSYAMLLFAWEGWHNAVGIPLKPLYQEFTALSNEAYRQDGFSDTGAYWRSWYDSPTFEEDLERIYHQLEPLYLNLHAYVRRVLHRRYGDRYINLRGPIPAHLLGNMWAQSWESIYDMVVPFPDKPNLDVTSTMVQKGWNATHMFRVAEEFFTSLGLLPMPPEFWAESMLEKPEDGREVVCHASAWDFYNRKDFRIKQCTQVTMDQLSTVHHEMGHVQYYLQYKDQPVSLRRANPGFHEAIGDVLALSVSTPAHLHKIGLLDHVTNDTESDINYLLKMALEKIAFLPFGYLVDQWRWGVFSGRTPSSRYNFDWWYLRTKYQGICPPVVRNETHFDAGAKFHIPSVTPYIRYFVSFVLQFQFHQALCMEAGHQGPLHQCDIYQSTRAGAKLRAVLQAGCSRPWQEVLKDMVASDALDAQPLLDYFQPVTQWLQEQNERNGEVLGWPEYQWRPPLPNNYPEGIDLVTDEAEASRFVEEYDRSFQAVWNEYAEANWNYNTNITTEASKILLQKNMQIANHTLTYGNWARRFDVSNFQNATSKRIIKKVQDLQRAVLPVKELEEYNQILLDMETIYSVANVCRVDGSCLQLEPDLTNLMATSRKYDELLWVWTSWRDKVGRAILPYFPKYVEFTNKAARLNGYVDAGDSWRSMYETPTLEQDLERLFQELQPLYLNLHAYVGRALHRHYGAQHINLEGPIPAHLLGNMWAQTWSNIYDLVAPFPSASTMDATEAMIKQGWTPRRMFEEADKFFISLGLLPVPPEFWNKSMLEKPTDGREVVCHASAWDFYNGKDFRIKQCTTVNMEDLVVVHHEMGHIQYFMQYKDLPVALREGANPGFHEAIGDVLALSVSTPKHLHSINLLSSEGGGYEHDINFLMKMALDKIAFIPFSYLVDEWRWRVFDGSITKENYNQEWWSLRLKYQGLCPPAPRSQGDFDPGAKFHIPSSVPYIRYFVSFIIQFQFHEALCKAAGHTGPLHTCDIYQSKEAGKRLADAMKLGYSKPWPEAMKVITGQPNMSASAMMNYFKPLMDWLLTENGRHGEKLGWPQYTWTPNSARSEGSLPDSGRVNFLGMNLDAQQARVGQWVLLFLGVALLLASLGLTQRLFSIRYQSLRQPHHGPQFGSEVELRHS
Briefly: incubation of hippuryl-L-histidyl-L-leucine with angiotensin converting enzyme (HHL hydrolysis). Type of assay: biochemical, rabbit. The following applies: 100 ng/ml; read-out: inhibition of angiotensin converting enzyme in vitro. Here is the method: The activity of the compounds of this invention was established by incubation of hippuryl-L-histidyl-L-leucine at 37° C. with angiotensin converting enzyme by the following procedure:
A crude angiotensin converting enzyme supernatant is obtained by blending 1 gm. of rabbit lung acetone powder (PelFreez Biologicals) with 35 ml of 50 mM (buffered) potassium phosphate, pH 8.3 and centrifuging for 45 min. at 40,000 xg.
The specific angiotensin converting enzyme substrate Hippuryl-L-histidyl-L-leucine (HHL-Sigma Chem. Co.) is prepared at 5 mM in 200 mM potassium phosphate buffer containing 757 mM NaCl at pH 8.3.
Incubation for the assay of HHL hydrolysis by angiotensin converting enzyme is carried out in a 37° C. gyrorotary incubator in disposable 13×100 mm tubes. Each 0.25 ml assay mixture contains the following components at the final concentrations: potassium phosphate buffer, 100 mM; NaCl, 300 mM; HHL, 5 mM; and enzyme 0.15 ml (10 mU approx.) added last to initiate the reaction. Zero time controls have 0.25 ml of 2N HCl added before the enzyme. The timed reactions are terminated with acid at 30 min. similarly and the hippuric acid freed from substrate is extracted into 1.5 ml of ethylacetate by vortex mixing for 15 sec. […]
The hippuric acid is resuspended in 1.0 ml of water, the absorbance at 228 nm is determined, and the amount present is calculated from a standard curve. […]

As usually defined, the inhibition is the drop in the measured response relative to a control, in per cent. In the case of `CC(CSC(=O)c1ccccc1)C(=O)N1C(C(=O)O)CCC1c1ccccc1` (stereo not drawn) [α-acid of Example 7, α-and β-5-Phenyl-1-(3-benzoylthio-2-methyl-1-oxopropyl)proline], the inhibition at 0.1 µg/mL was determined as 5%.
